Data from publication PMC9021288 (Nature Communications, 2022).
“And” between values parts separate entries of the source, which are not always exact repeats. Equal entries are not always repeated.

What was measured:
[1] = system: P. falciparum NF54 rings and schizonts; assay: Stage-specific activity on synchronized ring and schizont cultures; assay type: cell-based, Plasmodium falciparum
Procedure: Asynchronous NF54 parasites were cultured in a semi-automated shaker system[63] and synchronized once with 5% D-sorbitol. […] This yielded a parasite culture with ≥ 90% rings. To assess the schizont-stage activity of MMV693186, the initial synchronized culture was treated again with sorbitol 7 h later. Subsequently, parasites were cultured for another 17 h to yield a parasite culture of ≥ 90% early schizont stages. The ring and schizont synchronized cultures were diluted to 0.5% and then incubated with either 50 nM DHA or 50 nM MM693183 for 24 h in duplicate. Subsequently, the drug was washed out and parasites were cultured for another 24 h. Parasitemia was determined using Giemsa-stained thin smears at 0 h, 24 h, and 48 h after drug exposure.

panel of human enzymes = assay: Off-target enzyme and uptake assays (Eurofins CEREP); assay type: biochemical; details: for % Inhibition of Control Values: Rep1, Rep2, Mean
[2] = 7-day Maximum Tolerated Dose 1 (MTD1) rat study; assay type: in vivo, Wistar Han rats; design: AUC(0 - t) / Cmax / Urea / Glucose / Triglycerides: unit not given here
Text: See the summary of the study design in Supplementary Table 31. Nine-week-old Wistar (Crl:WI (Han)) rats were obtained from Charles River Laboratories (Domaine des Oncins, Saint-Germain-Nuelles, France). […] Animals were examined daily for any altered clinical signs, body weights, and food consumption. Blood samples were taken at different timepoints after the test item administration, and toxicokinetic exposure assessed under the defined experimental conditions and analyzed using Phoenix (version 6.4 and 1.4) (Supplementary Table 32). Measurements included hematology and clinical chemistry measurements. Animals were euthanized and necropsied at the end of the dosing period. At necropsy, major organ systems and tissues were collected and weighed and then examined for gross lesions as well as for microscopic changes.

C[C@@H](CNC(=O)[C@H](O)C(C)(C)CO)NC(=O)c1cc(F)c(F)cc1F [MMV693183]
activity against asexual stages ([1]; 50 nM, 24 h): active against both early and late asexual blood stages | Parasitemia, rings culture ([1]; Time (h) 0): 0.4 | Parasitemia, rings culture ([1]; Time (h) 24): 0 | Parasitemia, schizonts culture ([1]; Time (h) 0): 0.2 | Parasitemia, schizonts culture ([1]; Time (h) 24): 0 | induction, GABA transaminase (panel of human enzymes; 10 µM): 30.7% | inhibition, HDAC11 (panel of human enzymes; 10 µM): 36.9% | inhibition/induction, all other enzyme and uptake assays (panel of human enzymes; 10 µM): less than 25% | % Inhibition of Control Values (panel of human enzymes; ATPase (Na+/K+)): -2.75% and -1.9% and -3.6% | % Inhibition of Control Values (panel of human enzymes; CENP-E (h)): -0.4% and -0.6% and -0.2% | % Inhibition of Control Values (panel of human enzymes; COX1(h)): -4.65% and -5.4% and -3.9% | % Inhibition of Control Values (panel of human enzymes; Eg5 (h)): -5.55% and -2% and -9.1% | % Inhibition of Control Values (panel of human enzymes; GABA transaminase): -30.7% and -29.5% and -31.9% | % Inhibition of Control Values (panel of human enzymes; HDAC6 (h)): -14.7% and -18.7% and -10.7% | % Inhibition of Control Values (panel of human enzymes; HDAC11 (h)): 36.9% and 32.5% and 41.3% | % Inhibition of Control Values (panel of human enzymes; MAO-A (h)): 1.7% and -0.1% and 3.5% | % Inhibition of Control Values (panel of human enzymes; MAO-B (h) recombinant enzyme): -1.9% | % Inhibition of Control Values (panel of human enzymes; PDE1B (h)): 0.9% and -2.7% and 4.5% | % Inhibition of Control Values (panel of human enzymes; PDE2A1 (h)): -1% and -4.3% and 2.3% | % Inhibition of Control Values (panel of human enzymes; PDE3A (h)): 1.1% and -1.7% and 3.9% | % Inhibition of Control Values (panel of human enzymes; PDE5 (h) (non-selective)): -3.55% and -4.2% and -2.9% | % Inhibition of Control Values (panel of human enzymes; acetylcholinesterase (h)): 5.45% and 8.7% and 2.2% | % Inhibition of Control Values (panel of human enzymes; phosphatase 1B (h) (PTP1B)): 10.8% and 11.2% and 10.4% | % Inhibition of Control Values (panel of human enzymes; phosphatase CDC25A (h)): -0.35% and -5% and 4.3% | % Inhibition of Control Values (panel of human enzymes; sirtuin 1 (h) (inhibitor effect)): -1.45% and -1.9% and -1% | % Inhibition of Control Values (panel of human enzymes; tyrosine hydroxylase): -0.5% and 2.4% and -3.4% | mortality ([2]; 60, 200, 600 mg/kg/day, 7 days): no mortality occurred | Glucose ([2]; Female, 60 mg/kg): 6.25 and 5.62 and 5.48 | Triglycerides ([2]; Female, 60 mg/kg): 0.3 and 0.46 and 0.39 | Urea ([2]; Female, 60 mg/kg): 6.7 and 8 and 8.3 | Glucose ([2]; Female, 200 mg/kg): 5.19 and 5.85 and 7.06 | Triglycerides ([2]; Female, 200 mg/kg): 0.51 and 0.91 and 0.6 | Urea ([2]; Female, 200 mg/kg): 7.8 and 8 and 8.4 | Glucose ([2]; Female, 600 mg/kg): 6.4 and 7.42 and 7.56 | Triglycerides ([2]; Female, 600 mg/kg): 0.6 and 0.51 and 0.37 | Urea ([2]; Female, 600 mg/kg): 7.4 and 6.8 and 9.9 | Liver weight ([2]; MTD1 60 mg/kg/day, Females): 4.77 g | AUC(0 - t) ([2]; MTD1 60 mg/kg/day, Females, Day 1 then Day 7): 88.9 | Liver weight ([2]; MTD1 60 mg/kg/day, Males): 7.73 g | Liver weight ([2]; MTD1 200 mg/kg/day, Females): 6.00 g | Liver weight ([2]; MTD1 200 mg/kg/day, Males): 8.66 g | Liver weight ([2]; MTD1 600 mg/kg/day, Females): 7.44 g | Liver weight ([2]; MTD1 600 mg/kg/day, Males): 11.22 g | Concentration ([2]; MTD1 females, Day 1, 60 mg/kg/day, 0 h): LLOQ | Concentration ([2]; MTD1 females, Day 1, 60 mg/kg/day, 1 h): 33.6 µM and 28.3 µM | Concentration ([2]; MTD1 females, Day 1, 60 mg/kg/day, 4 h): 2.9 µM and 3.29 µM | Concentration ([2]; MTD1 females, Day 1, 60 mg/kg/day, 8 h): 1.05 µM and 0.628 µM | Concentration ([2]; MTD1 females, Day 1, 60 mg/kg/day, 24 h): LLOQ | Concentration ([2]; MTD1 females, Day 1, 200 mg/kg/day, 0 h): LLOQ | Concentration ([2]; MTD1 females, Day 1, 200 mg/kg/day, 1 h): 86.7 µM and 116 µM | Concentration ([2]; MTD1 females, Day 1, 200 mg/kg/day, 4 h): 21.3 µM and 11.6 µM | Concentration ([2]; MTD1 females, Day 1, 200 mg/kg/day, 8 h): 6.7 µM and 4.68 µM | Concentration ([2]; MTD1 females, Day 1, 600 mg/kg/day, 0 h): LLOQ | Concentration ([2]; MTD1 females, Day 1, 600 mg/kg/day, 1 h): 311 µM | Concentration ([2]; MTD1 females, Day 1, 600 mg/kg/day, 4 h): 74.9 µM and 64.8 µM | Concentration ([2]; MTD1 females, Day 1, 600 mg/kg/day, 8 h): 49.5 µM and 25.8 µM | Concentration ([2]; MTD1 females, Day 1, 600 mg/kg/day, 24 h): LLOQ | Concentration ([2]; MTD1 females, Day 7, 60 mg/kg/day, 0 h): LLOQ | Concentration ([2]; MTD1 females, Day 7, 60 mg/kg/day, 1 h): 21.8 µM and 20.3 µM | Concentration ([2]; MTD1 females, Day 7, 60 mg/kg/day, 4 h): 2.9 µM and 3.02 µM | Concentration ([2]; MTD1 females, Day 7, 60 mg/kg/day, 8 h): 0.604 µM and 1.2 µM | Concentration ([2]; MTD1 females, Day 7, 60 mg/kg/day, 24 h): LLOQ | Concentration ([2]; MTD1 females, Day 7, 200 mg/kg/day, 0 h): LLOQ | Concentration ([2]; MTD1 females, Day 7, 200 mg/kg/day, 1 h): 10.4 µM and 9.61 µM | Concentration ([2]; MTD1 females, Day 7, 200 mg/kg/day, 4 h): 5.35 µM and 3.22 µM | Concentration ([2]; MTD1 females, Day 7, 200 mg/kg/day, 8 h): 0.804 µM and 0.957 µM | Concentration ([2]; MTD1 females, Day 7, 200 mg/kg/day, 24 h): LLOQ | Concentration ([2]; MTD1 females, Day 7, 600 mg/kg/day, 0 h): 0.568 µM and 0.368 µM | Concentration ([2]; MTD1 females, Day 7, 600 mg/kg/day, 1 h): 15.1 µM and 29.6 µM | Concentration ([2]; MTD1 females, Day 7, 600 mg/kg/day, 4 h): 8.62 µM and 9.68 µM | Concentration ([2]; MTD1 females, Day 7, 600 mg/kg/day, 8 h): 6.83 µM and 6.42 µM | Concentration ([2]; MTD1 males, Day 1, 60 mg/kg/day, 0 h): LLOQ | Concentration ([2]; MTD1 males, Day 1, 60 mg/kg/day, 1 h): 12 µM and 13.7 µM | Concentration ([2]; MTD1 males, Day 1, 60 mg/kg/day, 4 h): 1.09 µM and 1.97 µM | Concentration ([2]; MTD1 males, Day 1, 60 mg/kg/day, 24 h): LLOQ | Concentration ([2]; MTD1 males, Day 1, 200 mg/kg/day, 0 h): LLOQ | Concentration ([2]; MTD1 males, Day 1, 200 mg/kg/day, 1 h): 98.9 µM and 133 µM | Concentration ([2]; MTD1 males, Day 1, 200 mg/kg/day, 4 h): 14 µM and 18.5 µM | Concentration ([2]; MTD1 males, Day 1, 200 mg/kg/day, 24 h): LLOQ | Concentration ([2]; MTD1 males, Day 1, 600 mg/kg/day, 0 h): LLOQ | Concentration ([2]; MTD1 males, Day 1, 600 mg/kg/day, 1 h): 189 µM and 295 µM | Concentration ([2]; MTD1 males, Day 1, 600 mg/kg/day, 4 h): 69.9 µM and 98.6 µM | Concentration ([2]; MTD1 males, Day 7, 60 mg/kg/day, 0 h): LLOQ | Concentration ([2]; MTD1 males, Day 7, 60 mg/kg/day, 1 h): 2.78 µM and 3.29 µM | Concentration ([2]; MTD1 males, Day 7, 60 mg/kg/day, 8 h): LLOQ | Concentration ([2]; MTD1 males, Day 7, 60 mg/kg/day, 24 h): LLOQ | Concentration ([2]; MTD1 males, Day 7, 200 mg/kg/day, 0 h): LLOQ | Concentration ([2]; MTD1 males, Day 7, 200 mg/kg/day, 1 h): 15.5 µM and 8.65 µM | Concentration ([2]; MTD1 males, Day 7, 200 mg/kg/day, 4 h): 2.92 µM and 2.95 µM | Concentration ([2]; MTD1 males, Day 7, 200 mg/kg/day, 8 h): 1.04 µM and 0.952 µM | Concentration ([2]; MTD1 males, Day 7, 200 mg/kg/day, 24 h): LLOQ | Concentration ([2]; MTD1 males, Day 7, 600 mg/kg/day, 0 h): LLOQ | Concentration ([2]; MTD1 males, Day 7, 600 mg/kg/day, 4 h): 4.9 µM and 5.09 µM | Concentration ([2]; MTD1 males, Day 7, 600 mg/kg/day, 24 h): LLOQ | Liver weight ([2]; MTD1 study, females, 60 mg/kg/day, individual animals): 4.84 g and 4.87 g | Liver weight ([2]; MTD1 study, females, 200 mg/kg/day, individual animals): 6.04 g and 5.86 g | Liver weight ([2]; MTD1 study, females, 600 mg/kg/day, individual animals): 6.96 g | Liver weight ([2]; MTD1 study, males, 60 mg/kg/day, individual animals): 8.13 g and 7.71 g | Liver weight ([2]; MTD1 study, males, 200 mg/kg/day, individual animals): 7.63 g and 8.4 g | Liver weight ([2]; MTD1 study, males, 600 mg/kg/day, individual animals): 11.11 g and 12.08 g | Triglycerides ([2]; Male, 60 mg/kg): 0.56 and 0.92 and 0.69 | Urea ([2]; Male, 60 mg/kg): 6.5 and 7.4 and 9.1 | Glucose ([2]; Male, 60 mg/kg, 7 days, per rat): 7.28 and 9.9 and 8.53 | Glucose ([2]; Male, 200 mg/kg): 7.64 and 9.24 and 10.45 | Triglycerides ([2]; Male, 200 mg/kg): 0.58 and 0.71 and 0.55 | Urea ([2]; Male, 200 mg/kg): 8.3 and 8.1 and 9.4 | Glucose ([2]; Male, 600 mg/kg): 5.54 and 8.3 and 8.46 | Triglycerides ([2]; Male, 600 mg/kg): 0.57 and 0.62 and 0.56 | Urea ([2]; Male, 600 mg/kg): 9.5 and 9.2 and 8.3 | increase in liver weight ([2]; males, 600 mg/kg/day): up to 71% | hematological and clinical chemistry parameters ([2]; rat, in vivo): no significant treatment-related deviations
